BindingDB's records for doi:10.1021/jm061414r (The Scripps Research Institute, 2007)

target: T1, Carboxylic ester hydrolase (Homo sapiens, UniProt Q8TDZ9); assay: TGH Inhibition Assay
T1 sequence (Q8TDZ9 whole entry): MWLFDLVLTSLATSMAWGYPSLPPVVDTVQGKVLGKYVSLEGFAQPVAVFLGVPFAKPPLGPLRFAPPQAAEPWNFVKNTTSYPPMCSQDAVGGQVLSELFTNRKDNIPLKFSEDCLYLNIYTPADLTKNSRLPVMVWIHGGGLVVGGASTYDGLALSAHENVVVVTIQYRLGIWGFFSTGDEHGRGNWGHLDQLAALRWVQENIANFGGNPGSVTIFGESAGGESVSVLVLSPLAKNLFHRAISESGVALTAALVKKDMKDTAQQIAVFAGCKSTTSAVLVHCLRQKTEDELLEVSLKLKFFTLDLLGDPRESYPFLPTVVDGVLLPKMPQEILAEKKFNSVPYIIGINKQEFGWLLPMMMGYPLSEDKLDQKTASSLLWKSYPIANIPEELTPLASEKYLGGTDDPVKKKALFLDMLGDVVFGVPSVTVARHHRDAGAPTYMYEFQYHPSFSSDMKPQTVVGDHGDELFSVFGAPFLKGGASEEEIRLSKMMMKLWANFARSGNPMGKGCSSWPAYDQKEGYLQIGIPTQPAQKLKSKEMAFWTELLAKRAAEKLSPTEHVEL
Procedure: Inhibition of TGH activity was assayed using COS-7 expressed TGH and the chromogenic substrate. IC50 values were determined from the inhibition observed at 7 different inhibitor concentrations (three trials each).

IC50	SMILES
2 µM	O=C(CCc1ccc(COc2ccccc2)cc1)c1ncc(-c2ccccn2)o1
8 µM	O=C(CCc1ccc(OCc2ccccc2)cc1)c1ncc(-c2ccccn2)o1 [3-[4-(benzyloxy)phenyl]-1-[5-(pyridin-2-yl)-1,3-oxazol-2-yl]propan-1-one]
0.5 µM	O=C(CCCCCCc1cccc(Cl)c1Cl)c1ncc(-c2ccccn2)o1 [7-(2,3-dichlorophenyl)-1-[5-(pyridin-2-yl)-1,3-oxazol-2-yl]heptan-1-one]
